Tests used:
Histone deacetylase 2 = Histone deacetylase 2 (Homo sapiens, UniProt Q92769)
Description: Inhibition of HDAC2 (unknown origin)

MDA-MB-231 [1] = test: Cytotoxicity against human MDA-MB-231 cells; type: functional, cell-based
SK-OV-3 [2] = test: Cytotoxicity against human SK-OV-3 cells assessed as inhibition of cell growth incubated for 72 hrs by MTT assay; type: functional, cell-based; settings: SK-OV-3, 72 h
SUM-159-PT = test: Cytotoxicity against human SUM159 cells; type: functional, cell-based
OVCAR-5 = test: Antiproliferative activity against human OVCAR-5 cells assessed as growth inhibition incubated for 48 hrs by SRB assay; type: functional, cell-based; settings: OVCAR-5, 48 h
[3] = target: Amine oxidase [flavin-containing] A (Homo sapiens, UniProt P21397); test: Inhibition of MAO-A (unknown origin) measured by MAO-GloTM method
Sequence of Amine oxidase [flavin-containing] A (P21397 whole entry): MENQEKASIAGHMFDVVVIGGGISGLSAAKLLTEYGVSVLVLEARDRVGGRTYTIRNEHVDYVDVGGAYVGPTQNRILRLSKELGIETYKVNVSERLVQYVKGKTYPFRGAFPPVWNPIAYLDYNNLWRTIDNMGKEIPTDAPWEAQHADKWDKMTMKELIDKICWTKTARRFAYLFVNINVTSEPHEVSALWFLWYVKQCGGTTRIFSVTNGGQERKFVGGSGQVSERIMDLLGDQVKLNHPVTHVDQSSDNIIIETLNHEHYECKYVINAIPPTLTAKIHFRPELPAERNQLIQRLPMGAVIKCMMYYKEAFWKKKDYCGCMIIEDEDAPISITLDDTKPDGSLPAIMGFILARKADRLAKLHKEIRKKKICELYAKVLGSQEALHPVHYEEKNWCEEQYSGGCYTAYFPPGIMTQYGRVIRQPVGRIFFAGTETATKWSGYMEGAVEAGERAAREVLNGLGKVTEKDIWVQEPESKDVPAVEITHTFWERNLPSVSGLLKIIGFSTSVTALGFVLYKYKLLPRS

[4] = target: T1, Cyclin-dependent kinase 2 (Homo sapiens, UniProt P24941)
[5] = target: T2, Epidermal growth factor receptor (Homo sapiens, UniProt P00533)
T2 sequence (P00533 whole entry): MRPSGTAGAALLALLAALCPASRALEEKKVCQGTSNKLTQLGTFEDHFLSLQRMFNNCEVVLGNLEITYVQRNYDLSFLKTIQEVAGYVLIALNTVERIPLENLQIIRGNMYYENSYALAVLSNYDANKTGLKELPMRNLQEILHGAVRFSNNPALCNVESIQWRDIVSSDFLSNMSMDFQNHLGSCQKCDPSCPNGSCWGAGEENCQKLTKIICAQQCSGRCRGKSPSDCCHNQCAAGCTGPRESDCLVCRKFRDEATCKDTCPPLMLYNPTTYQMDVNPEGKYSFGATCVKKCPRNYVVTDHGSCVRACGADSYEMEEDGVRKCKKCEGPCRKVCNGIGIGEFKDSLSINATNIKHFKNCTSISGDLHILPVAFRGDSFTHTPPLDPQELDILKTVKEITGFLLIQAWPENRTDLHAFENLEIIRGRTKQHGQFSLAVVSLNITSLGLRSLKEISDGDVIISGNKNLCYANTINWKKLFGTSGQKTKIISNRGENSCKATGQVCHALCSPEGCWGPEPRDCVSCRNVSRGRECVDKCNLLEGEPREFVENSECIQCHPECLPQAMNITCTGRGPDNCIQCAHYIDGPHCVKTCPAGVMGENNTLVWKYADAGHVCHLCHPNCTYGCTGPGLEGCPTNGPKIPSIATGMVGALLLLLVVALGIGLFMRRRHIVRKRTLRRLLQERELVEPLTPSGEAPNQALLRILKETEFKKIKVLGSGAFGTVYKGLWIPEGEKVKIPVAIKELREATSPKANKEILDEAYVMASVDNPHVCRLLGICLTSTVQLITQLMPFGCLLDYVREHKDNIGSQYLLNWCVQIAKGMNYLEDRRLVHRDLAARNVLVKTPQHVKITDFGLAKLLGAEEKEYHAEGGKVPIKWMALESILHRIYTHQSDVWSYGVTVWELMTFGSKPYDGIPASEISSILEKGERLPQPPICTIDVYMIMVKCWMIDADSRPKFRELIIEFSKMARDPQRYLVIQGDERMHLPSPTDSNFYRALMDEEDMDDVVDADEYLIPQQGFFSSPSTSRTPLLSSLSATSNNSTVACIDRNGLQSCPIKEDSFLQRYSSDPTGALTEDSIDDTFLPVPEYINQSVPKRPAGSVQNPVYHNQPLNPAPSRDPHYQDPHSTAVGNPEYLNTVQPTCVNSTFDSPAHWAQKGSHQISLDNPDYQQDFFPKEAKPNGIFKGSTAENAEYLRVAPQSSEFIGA

[6] = target: T3, Poly [ADP-ribose] polymerase 1 (Homo sapiens, UniProt P09874); test: Inhibition of PARP1 (unknown origin)
T3 sequence (P09874 whole entry): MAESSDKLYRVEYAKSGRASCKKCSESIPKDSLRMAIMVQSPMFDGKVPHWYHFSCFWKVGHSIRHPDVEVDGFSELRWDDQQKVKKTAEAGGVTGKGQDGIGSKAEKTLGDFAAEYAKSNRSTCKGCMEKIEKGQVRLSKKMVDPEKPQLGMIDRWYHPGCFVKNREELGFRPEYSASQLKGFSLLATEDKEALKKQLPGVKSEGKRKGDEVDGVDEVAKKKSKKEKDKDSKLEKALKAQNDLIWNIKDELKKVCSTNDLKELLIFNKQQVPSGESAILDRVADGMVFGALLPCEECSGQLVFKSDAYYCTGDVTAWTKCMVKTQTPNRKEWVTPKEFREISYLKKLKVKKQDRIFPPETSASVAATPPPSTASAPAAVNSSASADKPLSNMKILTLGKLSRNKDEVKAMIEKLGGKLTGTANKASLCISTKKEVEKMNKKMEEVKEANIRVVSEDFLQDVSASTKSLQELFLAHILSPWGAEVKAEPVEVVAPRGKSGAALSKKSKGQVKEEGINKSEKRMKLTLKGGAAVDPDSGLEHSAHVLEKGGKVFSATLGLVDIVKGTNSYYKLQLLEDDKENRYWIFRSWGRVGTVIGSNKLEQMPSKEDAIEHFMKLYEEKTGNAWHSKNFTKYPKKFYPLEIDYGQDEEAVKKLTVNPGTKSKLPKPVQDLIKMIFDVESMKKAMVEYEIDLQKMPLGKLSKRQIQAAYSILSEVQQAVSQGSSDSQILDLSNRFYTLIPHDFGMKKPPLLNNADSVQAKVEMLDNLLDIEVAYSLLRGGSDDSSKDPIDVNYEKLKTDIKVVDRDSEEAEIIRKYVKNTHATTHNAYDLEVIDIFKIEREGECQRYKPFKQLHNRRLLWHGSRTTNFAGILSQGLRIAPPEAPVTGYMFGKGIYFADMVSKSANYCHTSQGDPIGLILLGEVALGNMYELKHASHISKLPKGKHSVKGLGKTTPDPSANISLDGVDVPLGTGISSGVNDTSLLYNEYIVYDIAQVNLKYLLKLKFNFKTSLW

BT-549 = test: Cytotoxicity against human BT-549 cells assessed as cell growth inhibition; type: functional, cell-based
MDA-MB-231 [7] = test: Cytotoxicity against human MDA-MB-231 cells assessed as cell growth inhibition; type: functional, cell-based
[8] = target: Cyclin-dependent kinase 6 (Homo sapiens, UniProt Q00534)
Description: Inhibition of CDK6 (unknown origin))

MDA-MB-468 = test: Cytotoxicity against human MDA-MB-468 cells assessed as cell growth inhibition; type: functional, cell-based
[9] = target: Cyclin-dependent kinase 1/cyclin B1 (Homo sapiens) (UniProt P06493+P14635); test: Inhibition of CDK1/cyclin B1 (unknown origin) at 10 nM relative to control; type: protein-complex assay
[10] = target: Receptor tyrosine-protein kinase erbB-2 (Homo sapiens) (UniProt P04626); test: Inhibition of HER2 (unknown origin) at 10 uM in presence of ATP relative to control
[11] = target: Cyclin-dependent kinase 7 (Homo sapiens, UniProt P50613); test: Inhibition of CDK7 (unknown origin)
Sequence of Cyclin-dependent kinase 7 (P50613 whole entry): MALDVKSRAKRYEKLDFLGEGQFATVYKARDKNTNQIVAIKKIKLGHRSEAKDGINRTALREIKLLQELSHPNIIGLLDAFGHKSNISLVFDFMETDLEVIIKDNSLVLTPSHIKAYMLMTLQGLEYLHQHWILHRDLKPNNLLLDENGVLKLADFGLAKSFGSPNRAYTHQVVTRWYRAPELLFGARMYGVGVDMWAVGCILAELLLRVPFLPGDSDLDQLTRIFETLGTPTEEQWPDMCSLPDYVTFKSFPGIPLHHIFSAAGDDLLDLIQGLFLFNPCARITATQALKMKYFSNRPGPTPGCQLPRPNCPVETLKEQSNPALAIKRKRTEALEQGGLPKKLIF

[12] = target: Extracellular calcium-sensing receptor (Homo sapiens, UniProt P41180); test: Inhibition of CASR (unknown origin)
MCF7 [13] = test: Cytotoxicity against human MCF7 cells assessed as reduction in cell growth incubated for 72 hrs by MTT assay; type: functional, cell-based; settings: MCF7, 72 h
MDA-MB-231 [14] = test: Cytotoxicity against human MDA-MB-231 cells assessed as reduction in cell growth incubated for 72 hrs by MTT assay; type: functional, cell-based; settings: MDA-MB-231, 72 h
Histone deacetylase 1 = Histone deacetylase 1 (Homo sapiens, UniProt Q13547)
Description: Inhibition of HDAC1 (unknown origin)

SK-OV-3 [15] = test: Antiproliferative activity against human SK-OV-3 cells; type: functional, cell-based
A549 [16] = test: Antiproliferative activity against human A549 cells; type: functional, cell-based
HeLa = test: Antiproliferative activity against human HeLa cells; type: functional, cell-based
[17] = Antiproliferative activity against human PC-3 cells; type: functional, cell-based
MCF7 [18] = test: Cytotoxicity against human MCF7 cells assessed as reduction in cell growth incubated fro 72 hrs by MTT assay; type: functional, cell-based; settings: MCF7, 72 h
HepG2 = test: Cytotoxicity against human HepG2 cells assessed as reduction in cell growth incubated fro 72 hrs by MTT assay; type: functional, cell-based; settings: HepG2, 72 h
A549 [19] = test: Cytotoxicity against human A549 cells assessed as reduction in cell growth incubated fro 72 hrs by MTT assay; type: functional, cell-based; settings: A549, 72 h
[20] = target: T4, Cyclin-dependent kinase 4 (Homo sapiens, UniProt P11802); test: Inhibition of CDK4 (unknown origin) at 1 uM relative to control
T4 sequence (P11802 whole entry): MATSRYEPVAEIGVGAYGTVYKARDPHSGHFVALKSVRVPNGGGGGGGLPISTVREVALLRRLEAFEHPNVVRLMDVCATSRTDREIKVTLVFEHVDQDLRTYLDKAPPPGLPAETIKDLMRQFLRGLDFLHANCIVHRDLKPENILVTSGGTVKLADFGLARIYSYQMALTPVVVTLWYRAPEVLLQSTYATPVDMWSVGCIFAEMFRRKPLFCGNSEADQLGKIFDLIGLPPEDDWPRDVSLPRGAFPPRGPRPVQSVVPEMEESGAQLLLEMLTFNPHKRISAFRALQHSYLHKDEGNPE

HCT-116 = test: Cytotoxicity against human HCT-116 cells assessed as reduction in cell growth incubated fro 72 hrs by MTT assay; type: functional, cell-based; settings: HCT-116, 72 h
[21] = target: T1, Cyclin-dependent kinase 2; test: Inhibition of CDK2 (unknown origin) by luminescence kinase assay
[22] = target: T2, Epidermal growth factor receptor; test: Inhibition of EGFR (unknown origin) using Poly (Glu, Tyr) as substrate incubated for 60 mins in presence of ATP by Kinase-Glo Plus luminescence kinase assay relative to control
[23] = target: Cyclin-dependent kinase 5 (Homo sapiens, UniProt Q00535)
Description: Inhibition of CDK5 (unknown origin)

Aurora kinase A = Aurora kinase A (Homo sapiens, UniProt O14965); test: Inhibition of Aurora A (unknown origin)
[24] = target: T1, Cyclin-dependent kinase 2; remark: listed apart in the source
Description: Inhibition of CDK2 (unknown origin) by mobility shift assay

[25] = target: T4, Cyclin-dependent kinase 4; test: Inhibition of human CDK4 extracted from baculovirus infected Sf9 insect cells incubated for 1 hrs in presence of ATP by liquid scintillation counter analysis
[26] = target: Receptor-type tyrosine-protein kinase FLT3 (Homo sapiens, UniProt P36888); test: Inhibition human recombinant FLT3
Sequence of Receptor-type tyrosine-protein kinase FLT3 (P36888 whole entry): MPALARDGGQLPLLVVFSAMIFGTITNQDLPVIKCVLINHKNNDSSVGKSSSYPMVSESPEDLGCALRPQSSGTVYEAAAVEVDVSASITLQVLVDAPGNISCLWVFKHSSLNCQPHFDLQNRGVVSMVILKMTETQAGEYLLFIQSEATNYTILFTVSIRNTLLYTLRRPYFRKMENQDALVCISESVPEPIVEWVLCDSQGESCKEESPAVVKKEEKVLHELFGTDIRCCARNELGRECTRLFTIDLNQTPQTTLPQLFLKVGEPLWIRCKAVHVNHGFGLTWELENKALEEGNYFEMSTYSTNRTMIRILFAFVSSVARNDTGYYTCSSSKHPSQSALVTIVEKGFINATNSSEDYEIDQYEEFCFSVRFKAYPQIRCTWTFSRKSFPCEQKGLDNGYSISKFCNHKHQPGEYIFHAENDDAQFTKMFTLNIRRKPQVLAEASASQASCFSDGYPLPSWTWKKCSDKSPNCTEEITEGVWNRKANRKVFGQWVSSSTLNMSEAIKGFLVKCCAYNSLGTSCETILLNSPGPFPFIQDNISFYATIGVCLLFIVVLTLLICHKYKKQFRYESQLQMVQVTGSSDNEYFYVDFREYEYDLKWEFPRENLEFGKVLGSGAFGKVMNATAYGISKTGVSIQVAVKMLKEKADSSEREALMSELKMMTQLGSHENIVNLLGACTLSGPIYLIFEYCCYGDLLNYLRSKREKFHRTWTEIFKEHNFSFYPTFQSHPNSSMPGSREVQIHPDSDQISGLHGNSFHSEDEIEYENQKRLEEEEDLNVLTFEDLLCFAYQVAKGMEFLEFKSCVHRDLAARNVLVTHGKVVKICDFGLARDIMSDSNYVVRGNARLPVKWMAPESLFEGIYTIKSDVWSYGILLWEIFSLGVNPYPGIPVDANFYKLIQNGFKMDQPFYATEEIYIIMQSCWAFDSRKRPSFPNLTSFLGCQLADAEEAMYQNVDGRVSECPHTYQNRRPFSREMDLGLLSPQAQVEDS

[27] = target: T3, Poly [ADP-ribose] polymerase 1; test: Inhibition of PARP-1 (unknown origin) incubated for 60 mins by chemiluminescent assay
HT-29 = test: Antiproliferative activity against human HT-29 cells assessed as reduction in cell viability incubated for 24 hrs by MTT assay; type: functional, cell-based; settings: HT-29, 24 h
A549 [28] = test: Antiproliferative activity against human A549 cells assessed as reduction in cell viability incubated for 24 hrs by MTT assay; type: functional, cell-based; settings: A549, 24 h
MCF7 [29] = test: Antiproliferative activity against human MCF7 cells assessed as reduction in cell viability incubated for 24 hrs by MTT assay; type: functional, cell-based; settings: MCF7, 24 h
PANC-1 = test: Antiproliferative activity against human PANC-1 cells assessed as reduction in cell viability incubated for 24 hrs by MTT assay; type: functional, cell-based; settings: PANC-1, 24 h
[30] = target: T5, Cyclin-dependent kinase 9 (Homo sapiens, UniProt P50750)
T5 sequence (P50750 whole entry): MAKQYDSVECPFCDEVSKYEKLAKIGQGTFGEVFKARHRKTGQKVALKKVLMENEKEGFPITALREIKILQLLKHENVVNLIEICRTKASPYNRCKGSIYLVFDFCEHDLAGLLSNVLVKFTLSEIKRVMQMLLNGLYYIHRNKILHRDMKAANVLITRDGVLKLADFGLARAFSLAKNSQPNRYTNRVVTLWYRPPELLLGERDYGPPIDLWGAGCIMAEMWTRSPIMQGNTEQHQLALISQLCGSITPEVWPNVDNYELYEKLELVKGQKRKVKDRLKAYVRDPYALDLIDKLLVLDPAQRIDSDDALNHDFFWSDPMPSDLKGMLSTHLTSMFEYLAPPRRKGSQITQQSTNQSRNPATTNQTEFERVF
Description: Inhibition of CDK9 (unknown origin) by ADP-Glo kinase assay

[31] = target: T5, Cyclin-dependent kinase 9; test: Inhibition of CDK9 (unknown origin)
MCF7 [32] = test: Growth inhibition of human MCF-7 cells incubated for 72 hrs by SRB assay; type: functional
K562 = test: Growth inhibition of human K562 cells incubated for 72 hrs by SRB assay; type: functional

For Nc1ccc(F)cc1NC(=O)c1ccc(CNC(=O)/C=C/c2cccnc2)cc1, the IC50 (Histone deacetylase 2) was 0.093 µM.
Molecule Cc1nc2c(F)cc(-c3nc(Nc4ccc(N5CCN(C(=O)c6cc(Cc7n[nH]c(=O)c8ccccc78)ccc6F)CC5)cn4)ncc3F)cc2n1C(C)C has an IC50 (MDA-MB-231 [1]) of 3.61 µM, an IC50 (SK-OV-3 [2]) of 0.548 µM and an IC50 (SUM-159-PT) of 0.435 µM. It also gave an IC50 (OVCAR-5) of 0.758 µM.
In the case of O=C(Nc1ccc2[nH]ncc2c1)c1cccc(Cl)c1Cl, the IC50 [3] is reported as greater than 10 µM.
For Cc1cc(C)cc(NNC(=O)[C@H]2CCCN2C(=O)Nc2ccc(Cl)cc2)c1, the IC50 [4] was 0.015 µM and the IC50 [5] was 0.096 µM.
Cc1cc(=O)n(C2CCCC2)c2nc(NCCC3CCN(C(=O)c4cc(Cc5n[nH]c(=O)c6ccccc56)ccc4F)CC3)ncc12 gave an IC50 [6] of 0.041 µM, an IC50 (BT-549) of 2.37 µM and an IC50 (MDA-MB-231 [7]) of 1.96 µM. The IC50 [8] was 0.127 µM and the IC50 (MDA-MB-468) was 2.81 µM.
Molecule O=C(Nc1ccc2c(ccn2C(=O)c2cccc(F)c2)c1)c1ccnnc1 has an inhibition [9] of 51% and an inhibition [10] of 52%.
With CN(C)C/C=C/C(=O)Nc1cccc(C(=O)Nc2cccc(Nc3ncc(Cl)c(-c4c[nH]c5ccccc45)n3)c2)c1 the IC50 [11] was 0.019 µM.
With C[C@@H](NCCCc1cccc(C(F)(F)F)c1)c1cccc2ccccc12 the IC50 [12] was 2.8 µM.
Molecule O=C(CC(=O)Nc1cccc(C(=O)Nc2cccc(Nc3ncc(Cl)c(-c4c[nH]c5ccccc45)n3)c2)c1)NO has an IC50 (MCF7 [13]) of 18.1 µM and an IC50 (MDA-MB-231 [14]) of 23 µM.
Molecule O=C(CCCCCCC(=O)Nc1cccc(C(=O)Nc2cccc(Nc3ncc(Cl)c(-c4c[nH]c5ccccc45)n3)c2)c1)NO has an IC50 (Histone deacetylase 1) of 0.248 µM and an IC50 [11] of 0.893 µM.
With Cc1cc(C)cc(NNC(=O)[C@H]2CCCN2C(=O)Nc2ccc(C(F)(F)F)cc2)c1 the IC50 [4] was 0.023 µM and the IC50 [5] was 0.087 µM.
For Cc1n[nH]c2c1C(c1ccc(F)cc1)C(C#N)=C(N)O2 (centres undefined), the IC50 (SK-OV-3 [15]) was 2.03 µM, the IC50 (A549 [16]) was 1.8 µM and the IC50 (HeLa) was 1.9 µM. It also gave an IC50 [17] of 2.8 µM.
N[C@H]1CCN(c2c3cc(-c4ccnc(NC(=O)C5CC5)c4)ccc3nc3c2[nH]c2ccccc23)C1 gave an IC50 (MCF7 [18]) of 1.12 µM, an IC50 [4] of 0.145 µM and an IC50 (HepG2) of 1.95 µM. The IC50 (A549 [19]) was 0.949 µM, the inhibition [20] was 41.1% and the IC50 (HCT-116) was 0.821 µM.
For O=C(c1ccc2ccccc2c1)c1cn(-c2ccccc2)nc1C1=Nn2c(S)nnc2SC1, the IC50 [21] was 0.0896 µM and the IC50 [22] was 0.165 µM.
With CC[C@H](CO)Nc1nc(NCc2ccccc2N)c2[nH]nc(C(C)C)c2n1 the IC50 [4] was 0.07 µM, the IC50 [23] was 0.26 µM and the IC50 (Aurora kinase A) was 0.4 µM.
Molecule O=C1Nc2ccccc2/C1=C1/Nc2ccccc2C1=O [INDIRUBIN] has an IC50 [24] of 0.003 µM.
Work on CCN1CCN(c2ccc(Nc3ncc(F)c(-c4cnc5cnn(C(C)C)c5c4)n3)cc2)CC1 yielded an IC50 [25] of 0.01 µM and an IC50 [26] of 0.008 µM.
In the case of Cc1nnc2n1N=C(c1ccccc1OCC(=O)NCCCNC(=O)COc1ccccc1C1=Nn3c(C)nnc3SC1)CS2, the IC50 [27] is reported as 0.00137 µM.
With Cc1ccc(NNC(=O)[C@H]2CCCN2C(=O)Nc2ccc(C(F)(F)F)cc2)cc1 the IC50 (HT-29) was 4.2 µM, the IC50 (A549 [28]) was 3.9 µM and the IC50 (MCF7 [29]) was 3.7 µM. For the same molecule, the IC50 (PANC-1) was 4.1 µM.
In the case of O=C(c1ccc2ccccc2c1)c1cn(-c2ccccc2)nc1C1=Nn2cnnc2SC1, the IC50 [22] is reported as 0.0647 µM.
COC[C@@H](C)N[C@H]1CC[C@H](Nc2cc(-c3cccc(NCC4(C#N)CCOCC4)n3)c(Cl)cn2)CC1 gave an IC50 [30] of 0.00051 µM.
CCOc1ccc(/C=C2/C(=O)N(c3ccc(Cl)cc3)N=C2C)cc1 gave an IC50 [31] of 0.077 nM and an IC50 [5] of 0.00012 µM.
Molecule O=C(Nc1cc(-c2ccc3nc4c([nH]c5ccccc54)c(N4CCOCC4)c3c2)ccn1)C1CC1 has an IC50 [4] of 3.91 µM and an inhibition [20] of 5.31%.
In the case of CCOc1ccc(C2C(C#N)=C(N)OC3C2C(C)=NN3c2ccc(Cl)cc2)cc1 (centres undefined), the IC50 [31] is reported as 1.26 nM and the IC50 [5] is reported as 0.00021 µM.
Molecule CCN1CCN(c2ccc(Nc3ncc(F)c(-c4cnc5cnn(C(C)C)c5c4)n3)cc2F)CC1 has an IC50 [25] of 0.007 µM and an IC50 [26] of 0.011 µM.
With CCCCCCCNc1nc(NCc2ccccc2)c2n[nH]c(C(C)C)c2n1 the IC50 [4] was greater than 1000 µM, the GI50 (MCF7 [32]) was 21.4 µM and the GI50 (K562) was 17 µM.
